From ChEMBL document CHEMBL5331140, “Discovery of IACS-52825, a Potent and Selective DLK Inhibitor for Treatment of Chemotherapy-Induced Peripheral Neuropathy” (J Med Chem, 2023)
Activity calls are given as the source filed them.

How the values were obtained:
[1] = Metabolic stability in rat liver microsomes assessed as intrinsic clearance at 1 uM in presence of NADPH regenerating system measured for 45 mins by LC-MS/MS analysis; format: ADME, Microsome; settings: read-out: CLH
[2] = Ratio of unbound drug concentration in C57BL/6 mouse brain to plasma at 0.3 mg/kg, iv measured for 24 hrs by LC-MS/MS analysis; format: ADME, organism-based; settings: brain and plasma, read-out: K(p,uu,brain)
[3] = Binding affinity to full length human DLK (1 to 859 residues)/NFkappaB DNA binding domain (unknown origin) fusion protein transfected in HEK293 cells assessed as dissociation constant incubated for 1 hr by Kinomescan assay; format: cell-based
[4] = Metabolic stability in human liver microsomes assessed as intrinsic clearance at 1 uM in presence of NADPH regenerating system measured for 45 mins by LC-MS/MS analysis; format: ADME, Microsome; settings: read-out: CLH
[5] = Metabolic stability in mouse liver microsomes assessed as intrinsic clearance at 1 uM in presence of NADPH regenerating system measured for 45 mins by LC-MS/MS analysis; format: ADME, Microsome; settings: read-out: CLH
[6] = Half life in C57BL/6 mouse at 0.3 mg/kg, iv measured for 24 hrs by LC-MS/MS analysis; format: ADME, organism-based; settings: in vivo
[7] = Half life in Sprague-Dawley rat at 3 mg/kg, po or 0.3 mg/kg, iv measured for 24 hrs by LC-MS/MS analysis; format: ADME, organism-based; settings: in vivo
[8] = Oral bioavailability in cynomolgus monkey at 1 mg/kg administered via nasal gavage measured for 24 hrs by LC-MS/MS analysis; format: ADME, organism-based, Macaca fascicularis; settings: in vivo
[9] = Half life in cynomolgus monkey at 1 mg/kg, po or 0.3 mg/kg, iv measured for 24 hrs by LC-MS/MS analysis; format: ADME, organism-based, Macaca fascicularis; settings: in vivo
[10] = Half life in Beagle dog at 1 mg/kg, po or 0.3 mg/kg, iv measured for 24 hrs by LC-MS/MS analysis; format: ADME, organism-based, Canis lupus familiaris; settings: in vivo
[11] = Oral bioavailability in Sprague-Dawley rat at 3 mg/kg administered via oral gavage and measured for 24 hrs by LC-MS/MS analysis; format: ADME, organism-based; settings: in vivo
[12] = Oral bioavailability in C57BL/6 mouse at 10 mg/kg administered via oral gavage and measured for 24 hrs by LC-MS/MS analysis; format: ADME, organism-based; settings: in vivo; for bioavailability: C57BL/6, mouse
[13] = Oral bioavailability in Beagle dog at 1 mg/kg administered via oral gavage and measured for 24 hrs by LC-MS/MS analysis; format: ADME, organism-based, Canis lupus familiaris; settings: in vivo
[14] = Half life in C57BL/6 mouse at 0.3 mg/kg, iv administered via tail vein and measured for 24 hrs by LC-MS/MS analysis; format: ADME, organism-based; settings: in vivo
[15] = Volume of distribution at steady state in C57BL/6 mouse at 0.3 mg/kg, iv administered via tail vein and measured for 24 hrs by LC-MS/MS analysis; format: ADME, organism-based; settings: in vivo, read-out: Vdss
[16] = AUClast in C57BL/6 mouse at 10 mg/kg administered via oral gavage and measured for 24 hrs by LC-MS/MS analysis; format: ADME, organism-based; set-up: time 24 hrs, dose 10 mg/kg, route po; settings: in vivo
[17] = biological target: T1, Mitogen-activated protein kinase kinase kinase 12 (Homo sapiens, UniProt Q12852); assay: Inhibition of doxycycline-inducible human DLK transfected in HEK293 cells assessed as reduction in c-Jun phosphorylation at Ser63 residue incubated for 5 hrs; format: cell-based
T1 sequence (Q12852 whole entry): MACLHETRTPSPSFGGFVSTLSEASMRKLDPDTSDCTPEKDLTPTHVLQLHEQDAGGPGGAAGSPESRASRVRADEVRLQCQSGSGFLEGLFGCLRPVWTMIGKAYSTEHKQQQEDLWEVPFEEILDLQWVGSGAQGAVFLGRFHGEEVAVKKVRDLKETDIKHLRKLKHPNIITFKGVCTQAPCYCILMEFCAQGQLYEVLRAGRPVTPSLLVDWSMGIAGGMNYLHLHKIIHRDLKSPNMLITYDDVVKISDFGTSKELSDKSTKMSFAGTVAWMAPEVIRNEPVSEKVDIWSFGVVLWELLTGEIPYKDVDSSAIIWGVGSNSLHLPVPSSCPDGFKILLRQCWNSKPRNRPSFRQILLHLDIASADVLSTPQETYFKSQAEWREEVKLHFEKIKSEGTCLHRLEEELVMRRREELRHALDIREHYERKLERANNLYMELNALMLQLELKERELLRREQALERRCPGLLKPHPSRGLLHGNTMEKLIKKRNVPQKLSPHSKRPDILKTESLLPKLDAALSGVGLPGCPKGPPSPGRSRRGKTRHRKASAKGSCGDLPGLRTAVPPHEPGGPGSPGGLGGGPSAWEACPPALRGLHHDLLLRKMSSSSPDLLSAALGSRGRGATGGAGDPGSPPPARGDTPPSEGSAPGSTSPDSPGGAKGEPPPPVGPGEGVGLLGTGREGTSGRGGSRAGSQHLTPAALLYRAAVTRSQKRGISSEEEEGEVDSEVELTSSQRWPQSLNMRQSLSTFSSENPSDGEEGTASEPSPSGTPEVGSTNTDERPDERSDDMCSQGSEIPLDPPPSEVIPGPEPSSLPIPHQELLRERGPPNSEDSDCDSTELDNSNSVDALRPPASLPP

[18] = Cmax in C57BL/6 mouse at 10 mg/kg administered via oral gavage and measured for 24 hrs by LC-MS/MS analysis; format: ADME, organism-based; set-up: dose 10 mg/kg, time 24 hrs, route po; settings: in vivo
[19] = biological target: T2, Dual specificity mitogen-activated protein kinase kinase 5 (Homo sapiens) (UniProt Q13163); assay: Inhibition of MEK5 (unknown origin) at 1 uM relative to control
T2 sequence (whole entry): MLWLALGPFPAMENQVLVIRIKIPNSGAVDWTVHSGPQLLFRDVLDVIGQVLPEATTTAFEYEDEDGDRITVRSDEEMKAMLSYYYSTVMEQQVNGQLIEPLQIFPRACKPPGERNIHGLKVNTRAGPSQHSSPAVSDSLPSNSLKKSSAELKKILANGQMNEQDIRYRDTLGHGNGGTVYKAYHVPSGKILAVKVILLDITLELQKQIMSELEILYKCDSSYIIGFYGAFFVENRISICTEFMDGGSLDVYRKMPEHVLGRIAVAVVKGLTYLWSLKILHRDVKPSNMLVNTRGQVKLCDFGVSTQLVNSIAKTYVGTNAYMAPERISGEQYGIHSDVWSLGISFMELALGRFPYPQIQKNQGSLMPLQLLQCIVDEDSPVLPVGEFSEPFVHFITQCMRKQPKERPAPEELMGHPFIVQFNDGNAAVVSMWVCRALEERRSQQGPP

[20] = biological target: Voltage-gated inwardly rectifying potassium channel KCNH2 (Homo sapiens, UniProt Q12809)
Description: Inhibition of hERG expressed in CHO cells at -80 mV holding potential by QPatch automated electrophysiology assay

Mus musculus [21] = assay: (§1) Antiallodynic activity in cisplatin-induced mechanical allodynia C57BL/6 mouse model assessed as increase in paw withdrawal threshold at 30 mg/kg, po stimulated with cisplatin on day 1 to 5 and 10 to 15 followed by daily administration of compound from day 6 to 16 and measured for 30 days by von frey test; format: functional, organism-based; settings: time 25.0 day
[22] = Toxicity in rat by GLP toxicity study; settings: in vivo
Mus musculus [23] = assay: as §1, with “day” for “day 6 to”, “for 35” for “for 30”; format: functional, organism-based; settings: time 20.0 day

Chain of Voltage-gated inwardly rectifying potassium channel KCNH2 (Q12809 whole entry): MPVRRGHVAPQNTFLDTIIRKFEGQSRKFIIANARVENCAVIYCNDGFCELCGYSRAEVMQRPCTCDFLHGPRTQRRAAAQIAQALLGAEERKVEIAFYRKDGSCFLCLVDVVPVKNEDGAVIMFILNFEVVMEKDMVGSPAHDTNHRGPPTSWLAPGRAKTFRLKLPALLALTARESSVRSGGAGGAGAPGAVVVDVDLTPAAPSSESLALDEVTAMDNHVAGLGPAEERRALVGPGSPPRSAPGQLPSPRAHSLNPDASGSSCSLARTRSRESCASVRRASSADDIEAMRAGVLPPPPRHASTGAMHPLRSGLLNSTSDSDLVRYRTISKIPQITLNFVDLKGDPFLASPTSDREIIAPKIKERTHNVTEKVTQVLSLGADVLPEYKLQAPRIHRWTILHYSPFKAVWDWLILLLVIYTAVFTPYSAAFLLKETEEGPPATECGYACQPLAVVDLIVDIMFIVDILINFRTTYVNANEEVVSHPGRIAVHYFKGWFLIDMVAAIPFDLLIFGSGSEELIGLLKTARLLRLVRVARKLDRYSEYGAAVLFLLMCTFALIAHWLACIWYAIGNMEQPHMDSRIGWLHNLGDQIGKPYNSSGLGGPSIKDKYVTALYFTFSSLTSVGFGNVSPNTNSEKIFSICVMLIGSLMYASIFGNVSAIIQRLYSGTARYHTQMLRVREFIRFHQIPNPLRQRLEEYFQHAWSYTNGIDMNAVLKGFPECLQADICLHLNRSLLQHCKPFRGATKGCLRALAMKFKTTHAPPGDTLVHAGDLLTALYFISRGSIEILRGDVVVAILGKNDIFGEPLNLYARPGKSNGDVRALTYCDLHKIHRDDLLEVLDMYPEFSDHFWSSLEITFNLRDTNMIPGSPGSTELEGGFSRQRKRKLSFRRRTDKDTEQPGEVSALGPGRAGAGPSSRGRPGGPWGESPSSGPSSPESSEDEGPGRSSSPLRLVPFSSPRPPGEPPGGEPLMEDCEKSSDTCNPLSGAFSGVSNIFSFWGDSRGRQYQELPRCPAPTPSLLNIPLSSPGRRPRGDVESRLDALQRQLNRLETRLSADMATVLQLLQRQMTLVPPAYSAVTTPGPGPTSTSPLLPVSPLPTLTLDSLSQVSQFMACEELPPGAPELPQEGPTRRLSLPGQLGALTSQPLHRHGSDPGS

CLint scaled at 1 µM [1] [mL/min/kg] | Kp uu at 24 h [2] | CLint scaled at 1 µM [4] [mL/min/kg] | CLint scaled at 1 µM [5] [mL/min/kg] | Structure (SMILES) | Kd [3] [nM] | further results
1 | 0.2 | 22 | 3 | CC(C)[C@H](O)c1nc(-c2cnc(N)c(OC(F)(F)F)c2)cn1C12CC(N3CCOCC3)(C1)C2 | 0.4 | 
133 |  | 233 | 789 | CC(C)c1nc(-c2cnc(N)c(C(F)(F)F)c2)cn1C1CCC1 | 66 | 
 |  |  |  | CC(C)c1nc(-c2cnc(N)c(C(F)(F)F)c2)cn1C1CC1 | 130 | 
238 |  | 362 | 2670 | CC(C)c1nc(-c2cnc(N)c(C(F)(F)F)c2)cn1C1CCCC1 | 225 | 
43 |  | 14 |  | CC(C)(C)Cc1nc(-c2cnc(N)c(C(F)(F)F)c2)cn1C12CC(N3CCOCC3)(C1)C2 | 66 | 
10 | 0.34 | 5 | 16 | Nc1ncc(-c2cn(C34CC(N5CCOCC5)(C3)C4)c(C3CC3)n2)cc1C(F)(F)F | 13 | half-life [6]: 3.8 h
91 |  | 35 |  | CC(C)C(O)c1nc(-c2cnc(N)c(OC(F)(F)F)c2)cn1C12CC(C1)C2 (centres undefined) | 0.6 | 
12 | 0.73 | 2 | 12 | Nc1ncc(-c2cn(C34CC(N5CCOCC5)(C3)C4)c(C3CC3)n2)cc1OC(F)(F)F |  | half-life [7]: 3.4 h; bioavailability [8]: 66%; half-life [9]: 4.6 h; half-life [10]: 10.5 h; bioavailability [11]: > 100%; bioavailability [12]: > 100%; bioavailability [13]: 77%; half-life [6]: 3.5 h
69 |  | 168 | 199 | CC(C)c1nc(-c2cnc(N)c(C(F)(F)F)c2)cn1C12CC(C1)C2 | 49 | 
32 | 1.1 | 14 | 26 | Nc1ncc(-c2cn(C34CC(C3)C4)c([C@@H](O)C(F)(F)F)n2)cc1OC(F)(F)F | 1.2 | half-life [14]: 3.5 h; Vd [15]: 4.6 L/kg; F ([12]; mouse, po, 10 mg/kg, 24 h): 51%; AUClast [16]: 14.4 µM·h; IC50 [17]: 48 nM; Cmax [18]: 2000 nM
 | 0.14 | 7 | 6 | CC(C)c1nc(-c2cnc(N)c(C(F)(F)F)c2)cn1C12CC(N3CCOCC3)(C1)C2 | 12 | half-life [6]: 3.3 h
 |  |  |  | Nc1ncc(-c2cc([C@H]3[C@@H]4CN(C5COC5)C[C@@H]43)n(CC3CC3)n2)cc1C(F)(F)F | 13 | 
 |  |  |  | Nc1ncc(-c2cn([C@H]3[C@@H]4CN(C5COC5)C[C@@H]43)c(CC3CC3)n2)cc1C(F)(F)F | 63 | 
6 | 0.6 | 9 | 9 | CC(C)c1nc(-c2cnc(N)c(OC(F)(F)F)c2)cn1C12CC(N3CCOCC3)(C1)C2 | 14 | half-life [7]: 7 h; bioavailability [8]: 64%; half-life [9]: 6.3 h; half-life [10]: 22.9 h; inhibition [19]: 16%; IC50 [20]: > 30000 nM; bioavailability [11]: > 100%; bioavailability [12]: > 100%; Activity (Mus musculus [21]): Active; bioavailability [13]: 80%; Activity [22]: Toxic; half-life [6]: 3.5 h; Activity (Mus musculus [23]): Active
 |  |  |  | CC(C)n1nc(-c2cnc(N)c(C(F)(F)F)c2)cc1C1CC1 | 110 | 
5 |  | 6 |  | Nc1ncc(-c2cn(C34CC(N5CCOCC5)(C3)C4)c(CC3CC3)n2)cc1C(F)(F)F |  | 
11 |  | 9 |  | CC(C)Cc1nc(-c2cnc(N)c(C(F)(F)F)c2)cn1C12CC(N3CCOCC3)(C1)C2 | 6.1 | 
